Assay results reported in publication PMC7339578, “Multiple circulating alkaloids and saponins from intravenous Kang-Ai injection inhibit human cytochrome P450 and UDP-glucuronosyltransferase isozymes: potential drug–drug interactions” (Chinese Medicine, 2020).
Several values for one entry are separate records, joined by “and”; a condition that tells them apart may be missing. Equal entries are not always repeated. Where two headings read alike, the source gives them in different places.

How the values were obtained:
UGT1A8 = conditions: cited from earlier work
UGT2B7 = test system: UGT2B7; parameters: method as in PMID 27916843; conditions: read-out: Ki towards UGT2B7; cited from earlier work
[1] = Protein binding assay (equilibrium dialysis); assay type: in vitro ADME, rat
Method: Binding of circulating alkaloids and saponins to rat plasma was measured by equilibrium dialysis using Spectra/Por 2 dialysis membranes (molecular weight cutoff, 12–14 kDa; Rancho Dominguez, CA, USA) as described. After equilibrating for 24 h at 55 rpm and 37 °C, the dialysate and the plasma were sampled for analysis. […] The concentrations of tested matrine, oxysophocarpine and oxymatrine were 2 μmol/L, while those of astragaloside IV, III, and ginsenosides Rh1, Rg2, Rg1, Rf, Re, Rd, Rc, Rb1, Rb2, notoginsenosides R1, R2, were 4 μmol/L. The unbound fraction (fu-plasma) in rat plasma was calculated as follow: fu-plasma = Cd/Cp × 100%, where the Cd and Cp values were the concentrations of each analyte in the dialysate sample and in the post-dialysis plasma sample, respectively.

[2] = Plasma pharmacokinetics in rats after a 30-min intravenous infusion of Kang-Ai injection; assay type: in vivo, Sprague–Dawley rats
In short: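 Fasted male Sprague–Dawley rats (250 ± 20 g) got a single 30-min tail-vein infusion of Kang-Ai injection at 6 mL/kg. Jugular blood was sampled from 5 min to 12 h for plasma. Parameters came from non-compartmental analysis (trapezoidal AUC), n = 3.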

[3] = Urinary (renal) excretion in rats after a 30-min infusion of Kang-Ai injection; assay type: in vivo, Sprague–Dawley rats; conditions: Kang-Ai injection 6 mL/kg iv; for fe-U,0–12h (fraction of dose excreted into urine): rat urine 0–12 h; for CL renal: male, Sprague-Dawley, rat, read-out: CLR (renal excretory clearance) (converted)
In short: (§1)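 Urine collected in metabolic cages at 0–4, 4–8, 8–12 h and bile at 0–3, 3–6, 6–9, 9–12 h after infusion start, weighed and frozen at −80 °C. Non-compartmental analysis; CLR and CLB as cumulative urinary or biliary amount divided by plasma AUC0-∞, fe-U and fe-B as cumulative amount/dose; mean ± SD (n = 3).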

[4] = Biliary (hepatobiliary) excretion in rats after a 30-min infusion of Kang-Ai injection; assay type: in vivo, Sprague–Dawley rats; conditions: rat bile 0–12 h; Kang-Ai injection 6 mL/kg iv
In short: as §1

[5] = Stability tests of analytes in rat plasma QC samples; assay type: in vitro ADME; conditions: rat plasma
Method: […] The dilution integrity was investigated by analyzing six replicate samples with each analyte, and each analyte were diluted 10-fold with blank rat matrix. Furthermore, the diluted samples were analyzed using freshly prepared calibration curve to calculate RE and RSD, which should be no more than ± 15% as criterion.

[6] = male, Sprague-Dawley, rat, in vivo, iv

| SMILES | fe-U,0–12h (fraction of dose excreted into urine) [3] | fe-B,0–12h (fraction of dose excreted into bile) [4] | At -80 °C for 48 h, Mean±SD ([5]; nominal conc. 20 nM) | At -80 °C for 48 h, RE ([5]; nominal conc. 20 nM) | Extracted samples at 8 °C for 18 h, Mean±SD ([5]; nominal conc. 20 nM) | Extracted samples at 8 °C for 18 h, RE ([5]; nominal conc. 20 nM) | Short-term stability at room temperature for 6 h, Mean±SD ([5]; nominal conc. 20 nM) | Short-term stability at room temperature for 6 h, RE ([5]; nominal conc. 20 nM) | Three freeze-thaw cycles (-80 °C ↔ 23 °C), Mean±SD ([5]; nominal conc. 20 nM) | Three freeze-thaw cycles (-80 °C ↔ 23 °C), RE ([5]; nominal conc. 20 nM) | At -80 °C for 48 h, Mean±SD ([5]; nominal conc. 100 nM) | At -80 °C for 48 h, RE ([5]; nominal conc. 100 nM) | Extracted samples at 8 °C for 18 h, Mean±SD ([5]; nominal conc. 100 nM) | Extracted samples at 8 °C for 18 h, RE ([5]; nominal conc. 100 nM) | Short-term stability at room temperature for 6 h, Mean±SD ([5]; nominal conc. 100 nM) | Short-term stability at room temperature for 6 h, RE ([5]; nominal conc. 100 nM) | Three freeze-thaw cycles (-80 °C ↔ 23 °C), Mean±SD ([5]; nominal conc. 100 nM) | Three freeze-thaw cycles (-80 °C ↔ 23 °C), RE ([5]; nominal conc. 100 nM) | At -80 °C for 48 h, Mean±SD ([5]; nominal conc. 400 nM) | At -80 °C for 48 h, RE ([5]; nominal conc. 400 nM) | further results |
| --- | --- | --- | --- | --- | --- | --- | --- | --- | --- | --- | --- | --- | --- | --- | --- | --- | --- | --- | --- | --- | --- |
| CC(C)(O)[C@@H]1CC[C@](C)([C@H]2[C@@H](O)C[C@@]3(C)[C@@H]4C[C@H](O)[C@H]5C(C)(C)[C@@H](O)CC[C@@]56C[C@@]46CC[C@]23C)O1 [cycloastragenol] | – | – | – | – | – | – | – | – | – | – | – | – | – | – | – | – | – | – | – | – | Ki (UGT1A8): 0.034 µM; Ki (UGT2B7): 21 µM |
| CC(C)=CCC[C@](C)(O[C@@H]1O[C@H](CO)[C@@H](O)[C@H](O)[C@H]1O)[C@H]1CC[C@]2(C)[C@@H]1[C@H](O)C[C@@H]1[C@@]3(C)CC[C@H](O)C(C)(C)[C@@H]3[C@@H](O[C@@H]3O[C@H](CO)[C@@H](O)[C@H](O)[C@H]3O[C@@H]3OC[C@@H](O)[C@H](O)[C@H]3O)C[C@]12C [Compound C8, Notoginsenoside R1] | 72.12 ± 13.01% | 12.00 ± 1.57% | 20.74 ± 0.96 nM | 8.27% | 19.67 ± 2.39 nM | -11.85% | 17.74 ± 0.16 nM | -12.08% | 21.51 ± 1.68 nM | 12.79% | 98.21 ± 9.98 nM | 9.58% | 97.66 ± 12.82 nM | 12.46% | 92.24 ± 4.21 nM | -10.97% | 97.29 ± 6.47 nM | -10.11% | 413.01 ± 31.69 nM | 11.76% | fu-plasma (unbound fraction) ([1]; rat plasma, equilibrium dialysis 24 h, 37 °C, 2 μmol/L alkaloids, 4 μmol/L saponins): 90.36 ± 4.22%; t1/2 ([2]; rat plasma, 30-min iv infusion of Kang-Ai injection 6 mL/kg): 0.75 ± 0.16 h; Cmax ([2]; rat plasma, 30-min iv infusion of Kang-Ai injection 6 mL/kg, read-out: Cmax): 121 ± 21.1 nM; Extracted samples at 8 °C for 18 h, Mean±SD ([5]; nominal conc. 400 nM): 402.54 ± 33.33 nM; Extracted samples at 8 °C for 18 h, RE ([5]; nominal conc. 400 nM): 9.82%; Short-term stability at room temperature for 6 h, Mean±SD ([5]; nominal conc. 400 nM): 357.29 ± 9.94 nM; Short-term stability at room temperature for 6 h, RE ([5]; nominal conc. 400 nM): -13.09%; Three freeze-thaw cycles (-80 °C ↔ 23 °C), Mean±SD ([5]; nominal conc. 400 nM): 379.04 ± 38.85 nM; Three freeze-thaw cycles (-80 °C ↔ 23 °C), RE ([5]; nominal conc. 400 nM): -14.53% |
| O=C1C=CC[C@@H]2[C@H]3CCC[N+]4([O-])CCC[C@@H](CN12)[C@@H]34 (some centres unmarked) [Compound A2, Oxysophocarpine] | 38.60% and 38.60 ± 11.22% | 51.92% and 51.92 ± 8.98% | 21.90 ± 0.32 nM | 10.73% | 22.58 ± 0.11 nM | 13.22% | 20.94 ± 1.33 nM | 12.22% | 22.63 ± 0.15 nM | 13.81% | 112.64 ± 0.85 nM | 13.54% | 108.59 ± 6.59 nM | 14.25% | 103.12 ± 8.16 nM | 12.17% | 103.40 ± 9.41 nM | 12.06% | 437.15 ± 14.08 nM | 11.61% | fraction unbound at 24 h ([1]; rat plasma, equilibrium dialysis 24 h, 37 °C, 2 μmol/L alkaloids, 4 μmol/L saponins, read-out: fu-plasma (unbound fraction)): 0.912 ± 0.0495; Cmax ([2]; male, Sprague-Dawley, in vivo, rat plasma, 30-min iv infusion of Kang-Ai injection 6 mL/kg, read-out: Cmax): 170 ± 27.4 nM; half-life ([2]; male, Sprague-Dawley, in vivo, rat plasma, 30-min iv infusion of Kang-Ai injection 6 mL/kg, read-out: t1/2 (converted)): 1.78 ± 1.55 h; clearance ([2]; male, Sprague-Dawley, in vivo, rat, 30-min iv infusion of Kang-Ai injection 6 mL/kg, Table 1 unit, read-out: CLtot, p (converted)): 0.205 mL/min; Vd ([2]; male, Sprague-Dawley, in vivo, rat, 30-min iv infusion of Kang-Ai injection 6 mL/kg, Table 1 unit, read-out: VSS): 0.0252 ± 0.0148 L; clearance ([2]; male, Sprague-Dawley, in vivo, rat, Kang-Ai injection 6 mL/kg iv, read-out: CLtot, p (converted)): 0.205 mL/min/kg; Vd ([2]; male, Sprague-Dawley, in vivo, rat, Kang-Ai injection 6 mL/kg iv, read-out: VSS (Vd)): 0.0252 L/kg; CL renal ([3]; in vivo): 0.0792 mL/min; fraction of dose excreted unchanged via renal plus hepatobiliary excretion (sum of fe-U and fe-B) ([3]; rat urine + bile, 0–12 h): exceeded 90%; Extracted samples at 8 °C for 18 h, Mean±SD ([5]; nominal conc. 400 nM): 432.22 ± 7.29 nM; Extracted samples at 8 °C for 18 h, RE ([5]; nominal conc. 400 nM): 9.98%; Short-term stability at room temperature for 6 h, Mean±SD ([5]; nominal conc. 400 nM): 439.31 ± 14.14 nM; Short-term stability at room temperature for 6 h, RE ([5]; nominal conc. 400 nM): 12.94%; Three freeze-thaw cycles (-80 °C ↔ 23 °C), Mean±SD ([5]; nominal conc. 400 nM): 418.53 ± 37.48 nM; Three freeze-thaw cycles (-80 °C ↔ 23 °C), RE ([5]; nominal conc. 400 nM): 14.91% |
| CC(C)=CCC[C@](C)(O)[C@H]1CC[C@]2(C)[C@@H]1[C@H](O)C[C@@H]1[C@@]3(C)CC[C@H](O)C(C)(C)[C@@H]3[C@@H](O[C@@H]3O[C@H](CO)[C@@H](O)[C@H](O)[C@H]3O[C@@H]3O[C@@H](C)[C@H](O)[C@@H](O)[C@H]3O)C[C@]12C [Compound C5, Ginsenoside Rg2] | 2.23 ± 0.61% | 20.76 ± 3.37% | 19.84 ± 1.04 nM | -6.64% | 21.07 ± 0.87 nM | 8.32% | 19.68 ± 2.51 nM | 12.85% | 21.26 ± 1.22 nM | 11.13% | 96.95 ± 8.62 nM | -8.82% | 98.05 ± 6.29 nM | -8.46% | 87.52 ± 0.79 nM | -12.97% | 104.41 ± 11.32 nM | 12.73% | 410.70 ± 32.70 nM | 8.22% | fraction unbound at 24 h ([1]; rat, plasma): 0.265 ± 0.0328; Cmax [2, 6]: 231 ± 17.4 nM; clearance [2, 6]: 2.63 mL/min; half-life [2, 6]: 9.77 ± 13.7 h; AUC(0-t) ([2]; male, Sprague-Dawley, rat, in vivo, iv, AUC0–12h): > 0.1 µM·h; CL renal ([3]; urine and plasma): 0.0552 mL/min; Extracted samples at 8 °C for 18 h, Mean±SD ([5]; nominal conc. 400 nM): 404.47 ± 42.95 nM; Extracted samples at 8 °C for 18 h, RE ([5]; nominal conc. 400 nM): -10.83%; Short-term stability at room temperature for 6 h, Mean±SD ([5]; nominal conc. 400 nM): 361.60 ± 11.46 nM; Short-term stability at room temperature for 6 h, RE ([5]; nominal conc. 400 nM): -11.77%; Three freeze-thaw cycles (-80 °C ↔ 23 °C), Mean±SD ([5]; nominal conc. 400 nM): 374.05 ± 38.03 nM; Three freeze-thaw cycles (-80 °C ↔ 23 °C), RE ([5]; nominal conc. 400 nM): -12.71% |
